# Reference: paper PMC5486078, “Molecular Cloning and Functional Characterization of a Hexokinase from the Oriental River Prawn Macrobrachium nipponense in Response to Hypoxia” (International Journal of Molecular Sciences, 2017)
# Where two headings read alike, the source gives them in different places.
# T1: rMnHK (recombinant M. nipponense hexokinase) (Macrobrachium nipponense, UniProt A0A220NLA7)
# T1 construct: pET-28a, His tag, E. coli BL21 (DE3); about 70 kDa on SDS-PAGE
# T1 sequence (A0A220NLA7 1-449): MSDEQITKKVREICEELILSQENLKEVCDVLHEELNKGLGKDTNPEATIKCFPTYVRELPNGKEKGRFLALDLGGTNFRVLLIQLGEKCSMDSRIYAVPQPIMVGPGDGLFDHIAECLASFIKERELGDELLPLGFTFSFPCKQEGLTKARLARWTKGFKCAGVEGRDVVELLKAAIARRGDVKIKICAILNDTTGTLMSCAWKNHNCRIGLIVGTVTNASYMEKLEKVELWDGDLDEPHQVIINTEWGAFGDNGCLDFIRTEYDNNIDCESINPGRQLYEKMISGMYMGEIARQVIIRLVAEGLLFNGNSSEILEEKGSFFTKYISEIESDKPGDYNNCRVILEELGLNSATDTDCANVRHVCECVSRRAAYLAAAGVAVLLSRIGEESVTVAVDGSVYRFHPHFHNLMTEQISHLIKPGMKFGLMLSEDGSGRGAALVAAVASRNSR
# Columns and labels:
# [1] = biological target: T1, rMnHK (recombinant M. nipponense hexokinase); test: enzyme inhibition, Lineweaver-Burk plot; format: biochemical
# Description: enzyme inhibition, Lineweaver-Burk plot on rMnHK (recombinant M. nipponense hexokinase)
# [2] = substrate: Nc1ncnc2c1ncn2[C@@H]1O[C@H](COP(=O)(O)OP(=O)(O)OP(=O)(O)O)[C@@H](O)[C@H]1O; test: steady-state kinetics, Michaelis-Menten / Lineweaver-Burk plot; format: biochemical, Macrobrachium nipponense; settings: co-substrate hexose; assay pH and temperature not stated
molecule,measurement,setting,value
Nc1ncnc2c1ncn2[C@@H]1O[C@H](COP(=O)(O)OP(=O)(O)O)[C@@H](O)[C@H]1O [ADP],Ki,[1]; read-out: Inhibitor Studies (Ki) (mM) / ADP,0.76 mM
O=P(O)(O)OP(=O)(O)O [PPi],Ki,[1]; read-out: Inhibitor Studies (Ki) (mM) / PPi,0.011 mM
"rMnHK (recombinant M. nipponense hexokinase) (Macrobrachium nipponense) (protein, pET-28a, His tag, E. coli BL21 (DE3); about 70 kDa on SDS-PAGE) MSDEQITKKVREICEELILSQENLKEVCDVLHEELNKGLGKDTNPEATIKCFPTYVRELPNGKEKGRFLALDLGGTNFRVLLIQLGEKCSMDSRIYAVPQPIMVGPGDGLFDHIAECLASFIKERELGDELLPLGFTFSFPCKQEGLTKARLARWTKGFKCAGVEGRDVVELLKAAIARRGDVKIKICAILNDTTGTLMSCAWKNHNCRIGLIVGTVTNASYMEKLEKVELWDGDLDEPHQVIINTEWGAFGDNGCLDFIRTEYDNNIDCESINPGRQLYEKMISGMYMGEIARQVIIRLVAEGLLFNGNSSEILEEKGSFFTKYISEIESDKPGDYNNCRVILEELGLNSATDTDCANVRHVCECVSRRAAYLAAAGVAVLLSRIGEESVTVAVDGSVYRFHPHFHNLMTEQISHLIKPGMKFGLMLSEDGSGRGAALVAAVASRNSR",Km,[2],880 ± 600 µM
